Data as given in ChEMBL document CHEMBL4699558, “Lead optimization of 8-(methylamino)-2-oxo-1,2-dihydroquinolines as bacterial type II topoisomerase inhibitors” (Bioorg Med Chem, 2020).
Converted amounts (≈) assume the structure as drawn.

Key:
Haemophilus influenzae = experiment: Antibacterial activity against Haemophilus influenzae ATCC 43095 by CLSI method; assay type: functional
Streptococcus pneumoniae [1] = experiment: Antibacterial activity against genotype penicillin-resistant Streptococcus pneumoniae by CLSI method; assay type: functional
[2] = Cmax in ICR mouse at 100 mg/kg, sc measured upto 24 hrs by LC-MS analysis; assay type: ADME, organism-based; design: route subcutaneous, dose 100 mg/kg, time 24 hrs; details: in vivo
[3] = test system: Peptostreptococcus anaerobius; experiment: Antibacterial activity against Peptostreptococcus anaerobius ATCC 27337 by CLSI method; assay type: functional
Escherichia coli [4] = experiment: Antibacterial activity against Escherichia coli ATCC 25922 by CLSI method; assay type: functional
Enterococcus faecalis [5] = experiment: Antibacterial activity against vancomycin-resistant Enterococcus faecalis ATCC 51575 by CLSI method; assay type: functional
[6] = Inhibition of Escherichia coli topoisomerase IV by measuring relaxation activity incubated for 30 mins by fluorescence based assay
Staphylococcus aureus [7] = experiment: Antibacterial activity against hospital-acquired Methicillin -resistant Staphylococcus aureus ATCC BAA-811 by CLSI method; assay type: functional
Streptococcus anginosus = experiment: Antibacterial activity against Streptococcus anginosus ATCC 33397 by CLSI method; assay type: functional
[8] = test system: Prevotella melaninogenica; experiment: Antibacterial activity against Prevotella melaninogenica JCM6325 by CLSI method; assay type: functional
[9] = biological target: T1, Cytoplasmic tyrosine-protein kinase BMX (Homo sapiens) (UniProt P51813); experiment: Inhibition of recombinant BMX (unknown origin) at 10 uM using fluorescence-labeled peptide as substrate incubated for 15 mins followed by substrate addition and measured after 90 mins by electrophoretic mobility assay relative to control; details: time 105.0 min
T1 sequence (whole entry): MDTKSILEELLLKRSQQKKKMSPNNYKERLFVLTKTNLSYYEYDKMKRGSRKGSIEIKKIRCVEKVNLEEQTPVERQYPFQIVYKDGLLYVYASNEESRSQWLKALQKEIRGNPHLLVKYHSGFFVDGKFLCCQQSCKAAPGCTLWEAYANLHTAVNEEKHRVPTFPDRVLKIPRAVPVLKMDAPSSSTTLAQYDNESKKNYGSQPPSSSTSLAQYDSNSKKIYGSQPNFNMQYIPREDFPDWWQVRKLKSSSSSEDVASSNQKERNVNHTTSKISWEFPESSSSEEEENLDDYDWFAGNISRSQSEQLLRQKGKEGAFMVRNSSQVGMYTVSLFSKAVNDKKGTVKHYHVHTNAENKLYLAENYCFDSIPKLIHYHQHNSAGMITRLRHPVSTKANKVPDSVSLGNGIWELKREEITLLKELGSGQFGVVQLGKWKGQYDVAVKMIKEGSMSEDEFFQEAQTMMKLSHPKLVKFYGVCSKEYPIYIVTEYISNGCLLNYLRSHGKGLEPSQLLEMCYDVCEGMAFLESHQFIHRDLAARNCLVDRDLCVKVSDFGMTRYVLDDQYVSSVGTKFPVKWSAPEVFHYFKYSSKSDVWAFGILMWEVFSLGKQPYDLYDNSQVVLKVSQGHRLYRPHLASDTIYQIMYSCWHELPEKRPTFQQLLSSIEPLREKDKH

[10] = Half life in ICR mouse at 100 mg/kg, sc measured upto 24 hrs by LC-MS analysis; assay type: ADME, organism-based; details: in vivo
Fusobacterium nucleatum = experiment: Antibacterial activity against Fusobacterium nucleatum JCM8532 by CLSI method; assay type: functional
[11] = biological target: Voltage-gated inwardly rectifying potassium channel KCNH2 (Homo sapiens, UniProt Q12809); experiment: Inhibition of human ERG expressed in CHO cells by Q-patch clamp assay
Chain of Voltage-gated inwardly rectifying potassium channel KCNH2 (Q12809 whole entry): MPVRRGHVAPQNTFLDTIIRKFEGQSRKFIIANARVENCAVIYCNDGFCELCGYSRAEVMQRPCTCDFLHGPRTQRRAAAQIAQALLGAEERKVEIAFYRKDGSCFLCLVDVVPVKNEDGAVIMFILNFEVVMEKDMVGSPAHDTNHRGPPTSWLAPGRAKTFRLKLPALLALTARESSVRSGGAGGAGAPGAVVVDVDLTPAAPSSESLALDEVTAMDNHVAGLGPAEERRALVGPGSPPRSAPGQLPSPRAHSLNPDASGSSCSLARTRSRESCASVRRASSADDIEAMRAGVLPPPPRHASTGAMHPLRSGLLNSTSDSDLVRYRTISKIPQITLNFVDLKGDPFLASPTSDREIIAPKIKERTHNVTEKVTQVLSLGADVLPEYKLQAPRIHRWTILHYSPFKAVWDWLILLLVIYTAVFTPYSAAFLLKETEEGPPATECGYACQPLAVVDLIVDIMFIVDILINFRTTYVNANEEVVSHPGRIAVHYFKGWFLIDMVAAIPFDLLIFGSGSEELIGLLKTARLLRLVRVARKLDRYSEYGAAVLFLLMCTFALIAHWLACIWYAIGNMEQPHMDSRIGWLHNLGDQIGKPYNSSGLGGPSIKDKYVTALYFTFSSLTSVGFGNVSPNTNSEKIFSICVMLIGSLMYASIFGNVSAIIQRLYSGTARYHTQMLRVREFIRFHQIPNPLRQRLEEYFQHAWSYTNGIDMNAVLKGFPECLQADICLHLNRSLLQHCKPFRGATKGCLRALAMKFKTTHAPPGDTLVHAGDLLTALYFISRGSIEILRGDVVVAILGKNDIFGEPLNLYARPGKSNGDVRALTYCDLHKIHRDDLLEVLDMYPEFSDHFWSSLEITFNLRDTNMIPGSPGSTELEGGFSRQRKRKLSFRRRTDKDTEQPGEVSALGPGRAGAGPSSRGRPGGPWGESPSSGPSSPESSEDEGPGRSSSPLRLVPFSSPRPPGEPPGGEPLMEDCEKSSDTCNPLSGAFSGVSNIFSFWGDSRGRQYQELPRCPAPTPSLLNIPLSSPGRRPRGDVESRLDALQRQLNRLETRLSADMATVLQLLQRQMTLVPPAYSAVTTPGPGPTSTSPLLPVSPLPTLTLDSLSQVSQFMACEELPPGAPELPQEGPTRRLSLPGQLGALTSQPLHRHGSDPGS

DNA gyrase = DNA gyrase (Escherichia coli, UniProt P0AES4+P0AES6); experiment: Inhibition of Escherichia coli DNA gyrase by measuring supercoiling activity incubated for 60 mins by fluorescence based assay; assay type: protein-complex assay
[12] = Tmax in ICR mouse at 100 mg/kg, sc measured upto 24 hrs by LC-MS analysis; assay type: ADME, organism-based; details: in vivo
Clostridioides difficile = experiment: Antibacterial activity against Clostridioides difficile ATCC 700057 by CLSI method; assay type: functional
[13] = Cytotoxicity against human HepG2 cells assessed as reduction in cell viability at 10 uM incubated for 48 hrs by CCK-8 assay; details: HepG2 cells
Porphyromonas gingivalis = experiment: Antibacterial activity against Porphyromonas gingivalis JCM8525 by CLSI method; assay type: functional
Staphylococcus aureus [14] = experiment: Antibacterial activity against Methicillin-resistant Staphylococcus aureus by CLSI method; assay type: functional
Enterococcus faecalis [15] = experiment: Antibacterial activity against Enterococcus faecalis ATCC 29212 by CLSI method; assay type: functional
Bacteroides fragilis = experiment: Antibacterial activity against Bacteroides fragilis ATCC 25285 by CLSI method; assay type: functional
[16] = Cytotoxicity against human HepG2 cells assessed as reduction in cell viability at 50 uM incubated for 48 hrs by CCK-8 assay; details: HepG2 cells
[17] = biological target: DNA topoisomerase 2-alpha (Homo sapiens, UniProt P11388); experiment: Inhibition of human topoisomerase 2alpha; assay type: ADME
Chain of DNA topoisomerase 2-alpha (P11388 whole entry): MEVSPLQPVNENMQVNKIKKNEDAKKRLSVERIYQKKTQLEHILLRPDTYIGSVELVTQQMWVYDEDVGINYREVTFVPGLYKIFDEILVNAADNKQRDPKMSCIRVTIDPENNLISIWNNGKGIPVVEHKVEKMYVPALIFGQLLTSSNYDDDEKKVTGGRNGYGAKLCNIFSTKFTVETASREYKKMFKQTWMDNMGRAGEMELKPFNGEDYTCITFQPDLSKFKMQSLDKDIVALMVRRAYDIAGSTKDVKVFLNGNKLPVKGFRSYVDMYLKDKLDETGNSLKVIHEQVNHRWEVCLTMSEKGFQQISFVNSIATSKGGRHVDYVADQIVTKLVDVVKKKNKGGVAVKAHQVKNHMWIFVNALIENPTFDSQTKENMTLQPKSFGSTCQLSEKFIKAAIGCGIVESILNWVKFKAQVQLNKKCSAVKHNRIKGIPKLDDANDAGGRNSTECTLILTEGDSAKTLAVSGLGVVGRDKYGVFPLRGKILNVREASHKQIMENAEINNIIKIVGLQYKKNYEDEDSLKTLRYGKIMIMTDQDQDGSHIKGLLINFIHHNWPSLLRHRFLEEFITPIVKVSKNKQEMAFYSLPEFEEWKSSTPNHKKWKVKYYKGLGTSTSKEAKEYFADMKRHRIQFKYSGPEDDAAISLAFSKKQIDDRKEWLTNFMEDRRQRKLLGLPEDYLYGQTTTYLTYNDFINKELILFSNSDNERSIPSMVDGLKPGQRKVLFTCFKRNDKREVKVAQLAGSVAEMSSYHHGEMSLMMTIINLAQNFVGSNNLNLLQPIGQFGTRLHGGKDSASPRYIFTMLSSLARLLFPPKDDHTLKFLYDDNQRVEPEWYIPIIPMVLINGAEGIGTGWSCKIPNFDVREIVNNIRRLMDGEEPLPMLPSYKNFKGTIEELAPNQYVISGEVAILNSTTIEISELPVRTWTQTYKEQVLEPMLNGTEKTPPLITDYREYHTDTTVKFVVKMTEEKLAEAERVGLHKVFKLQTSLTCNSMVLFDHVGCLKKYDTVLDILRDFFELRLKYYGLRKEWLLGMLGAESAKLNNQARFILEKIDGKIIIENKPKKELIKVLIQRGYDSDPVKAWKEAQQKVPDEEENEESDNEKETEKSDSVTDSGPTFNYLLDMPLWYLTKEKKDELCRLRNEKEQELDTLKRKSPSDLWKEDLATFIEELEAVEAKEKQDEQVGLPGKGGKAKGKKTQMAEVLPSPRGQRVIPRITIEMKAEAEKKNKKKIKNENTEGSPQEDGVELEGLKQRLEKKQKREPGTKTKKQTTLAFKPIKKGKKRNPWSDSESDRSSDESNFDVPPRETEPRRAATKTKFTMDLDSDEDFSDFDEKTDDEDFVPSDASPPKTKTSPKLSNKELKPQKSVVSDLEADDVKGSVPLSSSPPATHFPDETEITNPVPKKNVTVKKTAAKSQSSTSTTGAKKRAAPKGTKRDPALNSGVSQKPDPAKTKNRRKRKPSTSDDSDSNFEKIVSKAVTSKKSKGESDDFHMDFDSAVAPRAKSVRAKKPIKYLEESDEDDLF

[18] = AUC (0 to 24 hrs) in ICR mouse at 100 mg/kg, sc measured upto 24 hrs by LC-MS analysis; assay type: ADME, organism-based; design: route subcutaneous, dose 100 mg/kg, time 24 hrs; details: in vivo
Staphylococcus aureus [19] = experiment: Antibacterial activity against community-acquired Methicillin -resistant Staphylococcus aureus ATCC BAA-1556 by CLSI method; assay type: functional
Enterococcus faecium [20] = experiment: Antibacterial activity against vancomycin-resistant Enterococcus faecium ATCC 51559 by CLSI method; assay type: functional
Enterococcus = experiment: Antibacterial activity against Vancomycin-resistant Enterococcus by CLSI method; assay type: functional
Staphylococcus aureus [21] = experiment: Antibacterial activity against Staphylococcus aureus ATCC 29213 by CLSI method; assay type: functional
Enterococcus faecium [22] = experiment: Antibacterial activity against Enterococcus faecium ATCC 35667 by CLSI method; assay type: functional
Streptococcus pneumoniae [23] = experiment: Antibacterial activity against Streptococcus pneumoniae ATCC 49619 by CLSI method; assay type: functional
Escherichia coli [24] = experiment: Antibacterial activity against Escherichia coli ATCC 25922 in presence of PAbetaN by CLSI method; assay type: functional
[25] = biological target: DNA gyrase (Escherichia coli) (UniProt P0AES6+P0AES4); experiment: Potency index, ratio of IC50 of 4-(8-(methylamino)-2-oxo-1,2-dihydroquinoline-3-carboxamido)benzoic acid to IC50 of compound for inhibition of Escherichia coli DNA gyrase incubated for 60 mins by fluorescence based assay; assay type: protein-complex assay
Escherichia coli [26] = experiment: Potency index, ratio of MIC of 4-(8-(methylamino)-2-oxo-1,2-dihydroquinoline-3-carboxamido)benzoic acid to MIC of compound for antibacterial activity against Escherichia coli ATCC 25922; assay type: functional

Compound CNc1cc(F)cc2c(O)c(C(=O)Nc3ccc(C(=O)O)cc3)c(=O)[nH]c12 has an MIC (Haemophilus influenzae) of no more than 0.015 µg/mL, an MIC50 (Streptococcus pneumoniae [1]) of 0.03 µg/mL (≈ 0.0808 µM) and an MIC90 (Streptococcus pneumoniae [1]) of 0.06 µg/mL (≈ 0.162 µM). For the same compound, the Cmax [2] was 12400 ng/mL, the MIC [3] was 0.06 µg/mL (≈ 0.162 µM) and the MIC (Escherichia coli [4]) was 1 µg/mL (≈ 2.69 µM). It also gave an MIC (Enterococcus faecalis [5]) of 0.002 µg/mL (≈ 0.00539 µM), an IC50 [6] of 62.9 nM and an MIC (Staphylococcus aureus [7]) of 0.5 µg/mL (≈ 1.35 µM). For the same compound, the MIC (Streptococcus anginosus) was 0.03 µg/mL (≈ 0.0808 µM), the MIC [8] was greater than 32 µg/mL and the inhibition [9] was 29%. For the same compound, the half-life [10] was 6.79 h, the MIC (Fusobacterium nucleatum) was 0.12 µg/mL (≈ 0.323 µM) and the IC50 [11] was greater than 30000 nM. For the same compound, the IC50 (DNA gyrase) was 1.1 nM, the Tmax [12] was 0.25 h and the MIC (Clostridioides difficile) was 0.25 µg/mL (≈ 0.673 µM). The cytotoxicity at 48 h, 10 µM [13] was 7.93%, the MIC (Porphyromonas gingivalis) was 0.25 µg/mL (≈ 0.673 µM) and the MIC50 (Staphylococcus aureus [14]) was 0.25 µg/mL (≈ 0.673 µM). For the same compound, the MIC90 (Staphylococcus aureus [14]) was 0.25 µg/mL (≈ 0.673 µM), the MIC (Enterococcus faecalis [15]) was 0.002 µg/mL (≈ 0.00539 µM) and the MIC (Bacteroides fragilis) was 8 µg/mL (≈ 21.5 µM). The cytotoxicity at 48 h, 50 µM [16] was 25.2%, the IC50 [17] was greater than 100000 nM and the AUC(0-t) at 24 h [18] was 16000 ng·h/mL. It also gave an MIC (Staphylococcus aureus [19]) of 0.25 µg/mL (≈ 0.673 µM), an MIC (Enterococcus faecium [20]) of 0.015 µg/mL (≈ 0.0404 µM) and an MIC50 (Enterococcus) of 0.008 µg/mL (≈ 0.0215 µM). It also gave an MIC90 (Enterococcus) of 0.015 µg/mL (≈ 0.0404 µM), an MIC (Staphylococcus aureus [21]) of 0.25 µg/mL (≈ 0.673 µM) and an MIC (Enterococcus faecium [22]) of 0.008 µg/mL (≈ 0.0215 µM). The MIC (Streptococcus pneumoniae [23]) was 0.015 µg/mL (≈ 0.0404 µM).

Compound CNc1cc(F)cc2cc(C(=O)Nc3ccc(C(=O)O)cc3)c(=O)[nH]c12 has an MIC (Haemophilus influenzae) of 0.03 µg/mL (≈ 0.0844 µM), an MIC (Escherichia coli [4]) of 16 µg/mL (≈ 45 µM) and an MIC (Enterococcus faecalis [5]) of 0.015 µg/mL (≈ 0.0422 µM). It also gave an IC50 [6] of 219 nM, an MIC (Staphylococcus aureus [7]) of 8 µg/mL (≈ 22.5 µM) and an MIC (Streptococcus anginosus) of 0.06 µg/mL (≈ 0.169 µM). It also gave an MIC (Escherichia coli [24]) of 0.015 µg/mL, an IC50 (DNA gyrase) of 0.36 nM and an MIC (Enterococcus faecalis [15]) of 0.015 µg/mL (≈ 0.0422 µM). It also gave a Ratio IC50 [25] of 5, a Ratio (Escherichia coli [26]) of 4 and an MIC (Staphylococcus aureus [19]) of 8 µg/mL (≈ 22.5 µM). It also gave an MIC (Enterococcus faecium [20]) of 0.015 µg/mL (≈ 0.0422 µM), an MIC (Staphylococcus aureus [21]) of 4 µg/mL (≈ 11.3 µM) and an MIC (Enterococcus faecium [22]) of 0.03 µg/mL (≈ 0.0844 µM). For the same compound, the MIC (Streptococcus pneumoniae [23]) was 0.03 µg/mL (≈ 0.0844 µM).
